Consider 21 molecules from PMC7037947, “Novel ACE Inhibitory Peptides Derived from Simulated Gastrointestinal Digestion in Vitro of Sesame (Sesamum indicum L.) Protein and Molecular Docking Study” (International Journal of Molecular Sciences, 2020).

Experiment [1] deals with T1, Angiotensin Converting Enzyme (ACE) from rabbit lung (Oryctolagus cuniculus, UniProt P12822).
T1 construct: Angiotensin Converting Enzyme (ACE) from rabbit lung; purchased Sigma-Aldrich (St. Louis, MO, USA); host or cells: rabbit lung (tissue-derived)
T1 sequence (P12822 34-1310): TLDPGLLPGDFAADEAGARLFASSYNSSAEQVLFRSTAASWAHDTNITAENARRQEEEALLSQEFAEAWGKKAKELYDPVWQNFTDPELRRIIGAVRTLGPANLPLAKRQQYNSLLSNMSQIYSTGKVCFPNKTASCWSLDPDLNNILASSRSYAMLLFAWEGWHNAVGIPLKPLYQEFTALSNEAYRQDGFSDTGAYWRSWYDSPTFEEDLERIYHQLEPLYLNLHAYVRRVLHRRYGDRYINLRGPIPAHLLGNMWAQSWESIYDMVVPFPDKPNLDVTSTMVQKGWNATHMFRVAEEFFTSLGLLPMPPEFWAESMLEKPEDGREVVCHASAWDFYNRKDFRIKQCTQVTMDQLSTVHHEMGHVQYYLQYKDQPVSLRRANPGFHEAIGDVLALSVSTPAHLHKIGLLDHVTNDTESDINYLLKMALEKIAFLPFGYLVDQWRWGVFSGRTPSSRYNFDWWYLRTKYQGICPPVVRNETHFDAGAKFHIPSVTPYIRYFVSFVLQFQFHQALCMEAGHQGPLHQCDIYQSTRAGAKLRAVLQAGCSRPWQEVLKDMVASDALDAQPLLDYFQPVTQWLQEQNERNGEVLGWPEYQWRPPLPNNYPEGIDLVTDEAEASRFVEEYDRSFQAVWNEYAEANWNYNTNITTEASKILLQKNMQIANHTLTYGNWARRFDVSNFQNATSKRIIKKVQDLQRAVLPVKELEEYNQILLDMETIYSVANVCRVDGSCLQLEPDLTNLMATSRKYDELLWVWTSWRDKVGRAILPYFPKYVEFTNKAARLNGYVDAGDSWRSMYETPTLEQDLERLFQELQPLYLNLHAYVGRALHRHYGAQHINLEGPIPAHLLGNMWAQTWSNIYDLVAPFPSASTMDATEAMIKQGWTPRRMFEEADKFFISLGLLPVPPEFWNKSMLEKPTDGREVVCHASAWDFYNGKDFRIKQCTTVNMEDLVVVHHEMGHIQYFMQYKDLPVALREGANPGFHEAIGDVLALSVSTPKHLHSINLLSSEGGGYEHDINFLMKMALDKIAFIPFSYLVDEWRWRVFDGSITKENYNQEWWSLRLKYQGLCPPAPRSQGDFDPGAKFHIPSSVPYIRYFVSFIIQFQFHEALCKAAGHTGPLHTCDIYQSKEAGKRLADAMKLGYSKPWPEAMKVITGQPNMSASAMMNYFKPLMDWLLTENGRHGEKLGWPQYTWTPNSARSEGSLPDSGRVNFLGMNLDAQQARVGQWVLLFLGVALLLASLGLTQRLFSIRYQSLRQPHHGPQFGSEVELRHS
The experiment can be described thus: ACE inhibitory activity assay (HHL substrate, OPA fluorescence). It is filed as biochemical. Conditions: chemically synthesized peptides identified from peak 4; mean ± SD, n = 3; read-out: IC50 Value inhibiting ACE activity. The source says:
White sesame (Sesamum indicum L.) seeds were purchased from China Oil and Foodstuffs Corporation (Beijing, China). […] Pepsin (3000-3500 NFU/g), trypsin (250.N.F.U/mg), and α-chymotrypsin (1200 u/mg) were obtained from Solarbio Science and Technology Co., Ltd. (Beijing, China). Nanofiltration and ultrafiltration membranes were purchased from Rising Sun Membrane Technology Co., Ltd. (Beijing, China). All other reagents used in this study were of analytical grade. The ACE inhibitory activity was measured by using cary eclipse fluorescence spectrophotometer (Agilent Technologies Australia Pty Ltd., Mulgrave, Australia) according to a modified method of Li et al.. The sample was dissolved by distilled water to the appropriate concentration and the 96-well plate was used as the reaction vessel. Briefly, 30 μL of HHL substrate containing 0.3 mol/L NaCl in 50 mM borate buffer (pH 8.3) and 15 μL of samples were mixed. […] The reaction was stopped by using 125 μL of 1.2 mol/L NaOH. Finally, 30 μL of methanol solution containing 2% OPA was added, mixed evenly, and then stood at room temperature for 20 min. The derivative reaction was terminated by adding 40 μL of 6 mol/L HCl. The reaction solution was diluted 10 times and added into the fluorescence cell. The fluorescence absorption intensity was measured within 30–90 min. […] All assays were performed in triplicate. ACE inhibitory activity was calculated by using the following equation:ACE inhibitory activity (%) = [1 − (a−c)/(b−d)] × 100(2) where a is the fluorescence absorption intensity in the presence of both ACE and inhibitor, b is the fluorescence absorption intensity in the presence of ACE but not inhibitor, c is the fluorescence absorption intensity in the presence of inhibitor but not ACE, d is the fluorescence absorption intensity in the absence of both ACE and inhibitor.

In another experiment the test system is ACE. On the set-up: method as in doi:10.1007/s10989-015-9471-y. Particulars: peptide from sesame protein hydrolyzed by alcalase, ref [20], cited from earlier work.
For experiment [2], the target named is T2, Angiotensin Converting Enzyme (ACE) from rabbit lung (rabbit) (UniProt P12822).
T2 sequence: T1 sequence (P12822 34-1310)

Ends that are not written are not given here.

The IC50 is the midpoint of a concentration-inhibition curve. Consider HIGNILSL, for which the half-maximal inhibitory concentration (IC50) in experiment [1] was 36.69 ± 0.33 µM.
The same measure, in the same setting: the result for INTLSGR [INTLSGR] reads 149.6 ± 0.33 µM; that for GHIITVAR, 3.6 ± 0.1 µM; that for FMPGVPGPIQR, 11.1 ± 0.15 µM.
On the same count and under the same terms, the result for LAGNPAGR reads 148.4 ± 0.35 µM; that for HIITLGR [HIITLGR], 74.65 ± 0.13 µM; that for PNYHPSPR, 19 ± 0.26 µM.
For YAHYSYA, in the experiment on ACE, the “IC50 value, ACE inhibition” value is 600 µg/mL. For the same molecule, in the experiment on ACE (read-out: IC50 value, ACE inhibition), the IC50 is 687 µM.
Consider AFPAGAAHW, for which, in experiment [1], the IC50 is 29 ± 0.2 µM.
On the same count and under the same terms, the result for MPGVPGPIQR reads 54.79 ± 0.37 µM; that for AGALGDSVTVTR, 68.49 ± 0.14 µM.
In experiment [2], AFPAGAAHW gave an IC50 of ACE inhibitory activity (enzyme activity on HHL substrate, OPA fluorescence, 37 °C, pH 8.3) of 29 μM.
The same measure, in the same setting: the result for LAGNPAGR reads 148 μM; that for HIGNILSL, 36.7 μM; that for GHIITVAR, 3.6 μM.
On the same count and under the same terms, the result for INTLSGR reads 150 μM; that for FMPGVPGPIQR, 11.1 μM; that for MPGVPGPIQR, 54.8 μM.
Same read-out and setting: in the case of HIITLGR it was 74.7 μM.
AGALGDSVTVTR: the IC50 of ACE inhibitory activity (enzyme activity on HHL substrate, OPA fluorescence, 37 °C, pH 8.3) in experiment [2] was 68.5 μM.
Same read-out and setting: the result for PNYHPSPR reads 19 μM.
